Tests used:
[1] = Aqueous solubility of the salts from base screening; format: physicochemical; details: salt of the acid of Formula I with the named base
[2] = target: T1, CRTH2 (Homo sapiens, UniProt Q9Y5Y4); test: Competitive radioligand (3H-PGD2) binding assay using CRTH2-transfected cells; details: 1 nM 3H-PGD2, FIG. 20
T1 construct: expressed in transfected cells
T1 sequence (Q9Y5Y4 1-395): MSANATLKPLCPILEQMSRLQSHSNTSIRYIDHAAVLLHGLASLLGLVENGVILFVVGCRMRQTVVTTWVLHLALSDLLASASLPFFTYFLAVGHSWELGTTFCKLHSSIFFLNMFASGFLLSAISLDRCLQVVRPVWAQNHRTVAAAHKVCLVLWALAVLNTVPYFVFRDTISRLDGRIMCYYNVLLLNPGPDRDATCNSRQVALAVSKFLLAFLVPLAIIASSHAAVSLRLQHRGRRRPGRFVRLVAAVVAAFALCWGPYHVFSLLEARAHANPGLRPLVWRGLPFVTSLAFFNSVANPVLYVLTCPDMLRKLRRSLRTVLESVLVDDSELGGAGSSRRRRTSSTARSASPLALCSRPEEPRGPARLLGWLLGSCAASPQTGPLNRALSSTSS
Description: The surface expression of CRTH2 on the transfected cell lines was monitored periodically during culture and prior to each competitive radioligand binding assay. […] The cells were then washed in 2 mL of FACS buffer (PBS containing 1% BSA (Fraction V) and 0.1% sodium azide. The cells were subsequently incubated on ice with a FITC-conjugated anti-rat antibody (goat anti-rat Ig-FITC). After washed with cold FACS buffer, the cells were analyzed using a FACScan II analyzer and CellQuest software, both from Becton Dickinson (Mountain View, Calif.).
The test compounds were dissolved in DMSO at a concentration of 100 mM as stock solutions. Serial dilutions from 10 μM were made in binding buffer prior to assay. Transfected cells were resuspended in binding buffer (50 mM Tris-HCl, 40 mM MgCl2, and 0.1% bovine serum albumin, at pH 7.4) at a concentration of 4×10^6/mL at room temperature. Transfected cells were then seeded in U-bottom polypropylene 96-well plates (Fisher) by adding 50 μL of the cell suspension, followed by addition of 10 μL of ^3H-PGD2, 10 μL of the test compound solutions at a series of concentrations or controls, 30 μL of the binding buffer to bring the final volume to 100 μL. […] Scintillant (50 μL; Microscint™20, Perkin Elmer, Boston, Mass.) was added to each well and the radioactivity was counted on a TopCount (Packard Bioscience, Meriden, Conn.). […]

[3] = target: T2, DP1 (Homo sapiens, UniProt Q13258); test: Competitive radioligand (3H-PGD2) binding assay using DP1-transfected cells; details: CRTH2- versus DP1-transfected cells, FIGS. 20 and 21
T2 sequence (Q13258 1-359): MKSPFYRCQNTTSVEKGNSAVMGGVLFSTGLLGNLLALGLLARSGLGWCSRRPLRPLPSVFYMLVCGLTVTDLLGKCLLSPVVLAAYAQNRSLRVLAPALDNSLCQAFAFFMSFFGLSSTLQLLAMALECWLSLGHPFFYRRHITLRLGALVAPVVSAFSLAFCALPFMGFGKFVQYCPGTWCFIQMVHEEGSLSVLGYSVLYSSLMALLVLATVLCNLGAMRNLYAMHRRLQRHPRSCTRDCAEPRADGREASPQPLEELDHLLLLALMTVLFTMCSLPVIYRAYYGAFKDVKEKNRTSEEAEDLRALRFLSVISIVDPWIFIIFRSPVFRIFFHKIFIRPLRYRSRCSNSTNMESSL
Description: The binding affinity and selectivity of the amine salts of 4,6-bis(dimethylamino)-2-(4-(4-(trifluoromethyl)benzamido)benzyl)pyrimidin-5-yl}acetic acid provided herein were evaluated using a competitive radioligand binding assay with stably-transfected cell lines expressing CRTH2 or DP1.
The CRTH2 and DP1 stable cell lines were generated according to the procedure described by Sugimoto et al. (J. Pharm. Exp. Therap. 2003, 305, 347-352). These cell lines were maintained in RPMI 1640 culture medium containing HEPES buffer (25 mM), FCS (10%), L-glutamine (2 mM), penicillin (10 IU/mL), streptomycin (100 μg/mL), and puromycin (1 μg/mL).
Radioligand binding analyses were performed according to the methods of Sugimoto et al. (J. Pharm. Exp. Therap. 2003, 305, 347-352; Eur. J. Pharmacol. 2005, 524, 30-37). The test compounds were dissolved in DMSO at a concentration of 100 mM as stock solutions. Serial dilutions from 10 μM were made in binding buffer prior to assay. Transfected cells were resuspended in binding buffer (50 mM Tris-HCl, 40 mM MgCl2, and 0.1% bovine serum albumin, at pH 7.4) at a concentration of 4×10^6/mL at room temperature. […] Scintillant (50 μL; Microscint™20, Perkin Elmer, Boston, Mass.) was added to each well and the radioactivity was counted on a TopCount (Packard Bioscience, Meriden, Conn.). […]

| Compound | Aqueous Solubility at 25° C. [1] [µg/mL] | binding affinity for CRTH2 [2] | binding selectivity for CRTH2 [3] |
| --- | --- | --- | --- |
| CN(C)c1nc(Cc2ccc(NC(=O)c3ccc(C(F)(F)F)cc3)cc2)nc(N(C)C)c1CC(=O)O.c1ccc(CNCCNCc2ccccc2)cc1 [Benzathine, Benzathine Salt of {4,6-Bis(dimethylamino)-2-(4-(4-(trifluoromethyl)benzamido)benzyl)pyrimidin-5-yl}Acetic Acid] | 80 |  |  |
| CN(C)c1nc(Cc2ccc(NC(=O)c3ccc(C(F)(F)F)cc3)cc2)nc(N(C)C)c1CC(=O)O [Formula I, {4,6-bis(dimethyl-amino)-2-(4-(4-(trifluoro-methyl)benzamido)benzyl)pyrimidin-5-yl}acetic acid] |  | high affinity | bind selectively |
| piperazine Salt of {4,6-Bis(dimethylamino)-2-(4-(4-(trifluoromethyl)benzamido)benzyl)pyrimidin-5-yl}Acetic Acid | 5400 |  |  |
